According to patent US10214512B2, “Factor XIA inhibitors” (MERCK SHARP & DOHME CORP., priority 2015, dated 2019):

Columns and labels:
[1] = target: purified human Factor XIa (Homo sapiens (Human), UniProt P03951); test: Factor XIa Assay; format: biochemical; conditions: purified human Factor XIa 40 pM; substrate Z-Gly-Pro-Arg-AFC 100 μM; 50 mM HEPES pH 7.4; read-out: Human FXIa Ki
How it was run: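 Ki obtained from the dependence of uninhibited/inhibited initial-velocity ratio on inhibitor concentration, under a competitive-inhibition model. Reactions used 100 μM Z-Gly-Pro-Arg-AFC and 40 pM final human Factor XIa in pH 7.4 HEPES buffer with NaCl, CaCl2 and PEG 8000; run at rt or 37° C following pre-equilibration.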

[2] = target: purified Human plasma Kallikrein (Homo sapiens (Human), UniProt P03952); test: Kallikrein Assay; format: biochemical; conditions: purified Human plasma Kallikrein 0.5 nM; substrate Acetyl-K-P-R-AFC; 50 mM HEPES pH 7.4; Ki from IC50 by Cheng Prusoff
How it was run: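 Purified human plasma kallikrein (0.5 nM) with fluorogenic Ac-K-P-R-AFC ([…]) in 50 mM HEPES pH 7.4, 150 mM NaCl, 5 mM CaCl2, 0.1% PEG 8000, at rt or 37 °C. Substrate hydrolysis rate read with and without inhibitor; IC50 from four-parameter logistic fit, converted to Ki by Cheng–Prusoff.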

Sequence of purified human Factor XIa (P03951 388-625): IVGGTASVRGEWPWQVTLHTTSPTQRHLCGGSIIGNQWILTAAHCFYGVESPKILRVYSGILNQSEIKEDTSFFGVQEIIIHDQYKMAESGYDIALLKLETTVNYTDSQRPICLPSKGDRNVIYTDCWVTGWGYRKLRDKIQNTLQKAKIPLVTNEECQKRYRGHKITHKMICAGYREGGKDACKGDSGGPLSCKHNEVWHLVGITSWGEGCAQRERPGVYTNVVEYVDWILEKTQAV
Sequence of purified human Factor XIa (P03951 19-387 partner): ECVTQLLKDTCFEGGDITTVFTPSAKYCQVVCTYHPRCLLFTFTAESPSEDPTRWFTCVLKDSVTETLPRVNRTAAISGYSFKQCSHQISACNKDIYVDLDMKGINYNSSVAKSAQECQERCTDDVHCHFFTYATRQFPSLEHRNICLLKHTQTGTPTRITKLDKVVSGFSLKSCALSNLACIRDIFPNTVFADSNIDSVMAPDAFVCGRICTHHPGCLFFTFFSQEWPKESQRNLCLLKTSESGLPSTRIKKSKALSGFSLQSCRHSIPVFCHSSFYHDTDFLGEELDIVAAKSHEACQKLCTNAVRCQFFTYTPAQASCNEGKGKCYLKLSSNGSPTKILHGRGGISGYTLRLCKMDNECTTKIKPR
Sequence of purified Human plasma Kallikrein (P03952 391-638): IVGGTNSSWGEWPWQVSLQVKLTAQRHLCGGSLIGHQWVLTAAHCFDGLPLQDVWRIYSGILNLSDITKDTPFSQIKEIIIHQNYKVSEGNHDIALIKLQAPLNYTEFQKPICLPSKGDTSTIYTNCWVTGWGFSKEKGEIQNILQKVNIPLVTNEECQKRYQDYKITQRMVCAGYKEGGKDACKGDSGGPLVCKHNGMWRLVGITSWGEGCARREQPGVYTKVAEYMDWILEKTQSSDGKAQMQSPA
Sequence of purified Human plasma Kallikrein (P03952 20-390 partner): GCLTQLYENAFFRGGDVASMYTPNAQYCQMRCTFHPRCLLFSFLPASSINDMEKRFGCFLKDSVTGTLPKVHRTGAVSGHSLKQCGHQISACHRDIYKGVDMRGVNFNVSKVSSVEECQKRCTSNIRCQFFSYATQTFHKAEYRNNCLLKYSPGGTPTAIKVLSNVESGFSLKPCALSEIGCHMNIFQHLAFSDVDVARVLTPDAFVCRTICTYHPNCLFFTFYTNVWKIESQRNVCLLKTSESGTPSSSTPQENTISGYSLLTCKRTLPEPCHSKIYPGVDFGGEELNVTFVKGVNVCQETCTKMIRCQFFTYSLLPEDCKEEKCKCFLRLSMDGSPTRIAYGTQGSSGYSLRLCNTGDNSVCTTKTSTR

COC(=O)Nc1ccc2c(c1)NC(=O)C(C)CCCC(c1ccc(-c3c(F)ccc(Cl)c3F)c[n+]1[O-])c1cccc-2c1 (single isomer, unassigned) [Example 50-b, 5-(3-chloro-2,6-difluorophenyl)-2-(2^4-((methoxycarbonyl)amino)-5-methyl-4-oxo-3-aza-1(1,3),2(1,2)-dinenzenacyclononaphane-9-yl)pyridine 1-oxide]
Ki [1]: 3.5 nM | Ki [2]: 10.6 nM

COC(=O)Nc1ccc2c(c1)NC(=O)C[C@H]1C[C@@H]1C[C@H](c1ccc(-c3c(F)ccc(Cl)c3F)c[n+]1[O-])c1cccc-2c1 (single isomer, unassigned) [Example 66]
Ki [1]: 2.1 nM | Ki [2]: 10.2 nM

COC(=O)Nc1ccc2c(c1)NC(=O)CCCC[C@H](c1ccc(-c3c(F)ccc(Cl)c3F)c[n+]1[O-])c1cc(F)c(F)c-2c1 (single isomer, unassigned) [Example 69]
Ki [1]: 1.87 nM | Ki [2]: 6.79 nM

COC(=O)Nc1ccc2c(c1)NC(=O)CCCC[C@H](c1ccc(-c3c(F)ccc(Cl)c3F)c[n+]1[O-])c1cc-2ncc1F (single isomer, unassigned) [Example 72]
Ki [1]: 0.5 nM | Ki [2]: 2.96 nM

COC(=O)Nc1ccc2c(c1)NC(=O)CCCC[C@H](c1ccc(-c3c(F)ccc(Cl)c3F)c[n+]1[O-])c1cc-2ccn1 (single isomer, unassigned) [Example 73]
Ki [1]: 0.34 nM | Ki [2]: 1.08 nM

COC(=O)Nc1ccc2c(c1)NC(=O)CCCC[C@H](c1ccc(-c3c(F)ccc(Cl)c3F)c[n+]1[O-])c1cc-2ncn1 (single isomer, unassigned) [Example 75]
Ki [1]: 2.7 nM | Ki [2]: 8.42 nM

O=C(C1CCCCC(c2ccc(-c3cc(Cl)ccc3-n3cnnn3)c[n+]2[O-])c2cccc(c2)-c2cc(F)ccc2N1)N1CCCC1 (single isomer, unassigned) [Example 79-b, 5-(5-Chloro-2-(1H-tetrazol-1-yl)phenyl)-2-(2^5-fluoro-4-(pyrrolidine-1-carbonyl)-3-aza-1(1,3),2(1,2)-dibenzenacyclononaphane-9-yl)pyridine 1-oxide]
Ki [1]: 0.24 nM | Ki [2]: 119 nM

O=C(C1CCCCC(c2ccc(-c3cc(Cl)ccc3-n3cnnn3)c[n+]2[O-])c2cccc(c2)-c2cc(F)ccc2N1)N1CCCC1 (single isomer, unassigned) [Example 79-c, 5-(5-Chloro-2-(1H-tetrazol-1-yl)phenyl)-2-(2^5-fluoro-4-(pyrrolidine-1-carbonyl)-3-aza-1(1,3),2(1,2)-dibenzenacyclononaphane-9-yl)pyridine 1-oxide]
Ki [1]: 52.2 nM | Ki [2]: 2920 nM

O=C(C1CCCCC(c2ccc(-c3cc(Cl)ccc3-n3cnnn3)c[n+]2[O-])c2cccc(c2)-c2cc(F)ccc2N1)N1CCCC1 (single isomer, unassigned) [Example 79-d, 5-(5-Chloro-2-(1H-tetrazol-1-yl)phenyl)-2-(2^5-fluoro-4-(pyrrolidine-1-carbonyl)-3-aza-1(1,3),2(1,2)-dibenzenacyclononaphane-9-yl)pyridine 1-oxide]
Ki [1]: 30.3 nM | Ki [2]: 2170 nM

COC(=O)Nc1ccc2c(c1)NC(=O)CCCCC(c1ccc(-c3cc(Cl)ccc3-n3cnnn3)c[n+]1[O-])c1cc-2[n+]([O-])cc1F (single isomer, unassigned) [Example 81-a, 9-(5-(5-chloro-2-(1h-tetrazol-1-yl)phenyl)-1-oxidopyridin-2-yl)-1^5-fluoro-2^4-((methoxycarbonyl)amino)-4-oxo-3-aza-1(2,4)-pyridin-1-iuma-2(1,2)-benzenacyclononaphane 1^1-oxide]
Ki [1]: 0.14 nM | Ki [2]: 0.46 nM

COC(=O)Nc1cc(F)c2c(c1)NC(=O)C(C)CCCC(c1ccc(-c3c(F)ccc(Cl)c3F)c[n+]1[O-])c1cccc-2c1 (single isomer, unassigned) [Example 85-b, 5-(3-Chloro-2,6-difluorophenyl)-2-(2^6-fluoro-2^4-((methoxycarbonyl)amino)-5-methyl-4-oxo-3-aza-1(1,3),2(1,2)-dibenzenacyclononaphane-9-yl)pyridine 1-oxide]
Ki [1]: 6 nM | Ki [2]: 15.2 nM

COC(=O)Nc1cc(F)c2c(c1)NC(=O)C(C)CCCC(c1ccc(-c3c(F)ccc(Cl)c3F)c[n+]1[O-])c1cccc-2c1 (single isomer, unassigned) [Example 85-c, 5-(3-Chloro-2,6-difluorophenyl)-2-(2^6-fluoro-2^4-((methoxycarbonyl)amino)-5-methyl-4-oxo-3-aza-1(1,3),2(1,2)-dibenzenacyclononaphane-9-yl)pyridine 1-oxide]
Ki [1]: 0.97 nM | Ki [2]: 2.59 nM

COC(=O)Nc1ccc2c(c1)NC(=O)C(C)CCCC(c1ccc(-c3c(F)ccc(Cl)c3F)c[n+]1[O-])c1ccc(F)c-2c1 (single isomer, unassigned) [Example 86-a, 5-(3-Chloro-2,6-difluorophenyl)-2-(1^6-fluoro-2^4-((methoxycarbonyl)amino)-5-methyl-4-oxo-3-aza-1(1,3),2(1,2) -dibenzenacyclononaphane-9-yl)pyridine 1-oxide]
Ki [1]: 6.34 nM | Ki [2]: 1.29 nM

COC(=O)Nc1ccc2c(c1)NC(=O)C(C)CCCC(c1ccc(-c3c(F)ccc(Cl)c3F)c[n+]1[O-])c1ccc(F)c-2c1 (single isomer, unassigned) [Example 86-d, 5-(3-Chloro-2,6-difluorophenyl)-2-(1^6-fluoro-2^4-((methoxycarbonyl)amino)-5-methyl-4-oxo-3-aza-1(1,3),2(1,2) -dibenzenacyclononaphane-9-yl)pyridine 1-oxide]
Ki [1]: 1.65 nM | Ki [2]: 5.36 nM

COC(=O)Nc1ccc2c(c1)NC(=O)CCCCC(c1cc(OC)c(-c3c(F)ccc(Cl)c3F)c[n+]1[O-])c1cccc-2c1 (single isomer, unassigned) [Example 87-a, 5-(3-Chloro-2,6-difluorophenyl)-4-methoxy-2-(2^4-((methoxycarbonyl)amino)-4-oxo-3-aza-1(1,3),2(1,2) -dibenzenacyclononaphane-9-yl)pyridine 1-oxide]
Ki [1]: 4.1 nM | Ki [2]: 12.7 nM

O=C1CCCCC(c2ccc(-c3cc(F)ccc3-n3cnnn3)c[n+]2[O-])c2cccc(c2)-c2cc(F)ccc2N1 (single isomer, unassigned) [Example 89-a, 5-(5-fluoro-2-(1H-tetrazol-1-yl)phenyl)-2-(2^5-fluoro-4-oxo-3-aza-1(1,3),2(1,2)-dibenzenacyclononaphane-9-yl)pyridine 1-oxide]
Ki [1]: 0.39 nM | Ki [2]: 13.6 nM

O=C1CCCCC(c2ccc(-c3cc(F)ccc3-n3cc(Cl)nn3)c[n+]2[O-])c2cccc(c2)-c2cc(F)ccc2N1 (single isomer, unassigned) [Example 90-a, 5-(2-(4-Chloro-1H-1,2,3-triazol-1-yl)-5-fluorophenyl)-2-(2^5-fluoro-4-oxo-3-aza-1(1,3),2(1,2)-dinenzenacyclononaphane-9-yl)pyridine 1-oxide]
Ki [1]: 3.2 nM | Ki [2]: 121 nM

COC(=O)Nc1ccc2c(c1)NC(=O)CCCCC(c1ccc(-c3c(F)ccc(Cl)c3F)c[n+]1[O-])c1nc-2c[nH]1 (single isomer, unassigned) [Example 96-a, (Z)-5-(3-chloro-2,6-difluorophenyl)-2-(2^4-((methoxycarbonyl)amino)-4-oxo-1^1H-3-aza-1(4,2)-imidazola-2(1,2)-benzenacyclononaphane-9-yl)pyridine 1-oxide]
Ki [1]: 0.53 nM | Ki [2]: 0.6 nM

COC(=O)Nc1ccc2c(c1)NC(=O)CCCCC(c1ccc(-c3cc(Cl)ccc3-n3cnnn3)c[n+]1[O-])c1nc-2c[nH]1 (single isomer, unassigned) [Example 98-a, (Z)-5-(5-chloro-2-(1H-tetrazol-1-yl)phenyl)-2-(2^4-((methoxycarbonyl)amino)-4-oxo-1^1H-3-aza-1(4,2)-imidazola-2(1,2) -benzenacyclononaphane-9-yl)pyridine 1-oxide]
Ki [1]: 0.51 nM | Ki [2]: 0.49 nM

COC(=O)Nc1ccc2c(c1)NC(=O)CCCCC(c1ccc(-c3cc(Cl)ccc3OC(F)(F)F)c[n+]1[O-])c1nc-2c[nH]1 (single isomer, unassigned) [Example 99-a, (Z)-5-(5-chloro-2-(trifluoromethoxy)phenyl)-2-(2^4-((methoxycarbonyl)amino)-4-oxo-1^1H-3-aza-1(4,2)-imidazola-2(1,2) -benzenacyclononaphane-9-yl)pyridine 1-oxide]
Ki [1]: 0.17 nM | Ki [2]: 1.21 nM

COC(=O)Nc1ccc2c(c1)NC(=O)CCCCC(c1ccc(-c3c(OC(F)F)ccc(Cl)c3F)c[n+]1[O-])c1nc-2c[nH]1 (single isomer, unassigned) [Example 100-a, (Z)-5-(3-Chloro-6-(difluoromethoxy)-2-fluorophenyl)-2-(2^4-((methoxycarbonyl)amino)-4-oxo-1^1H-3-aza-1(4,2)-imidazola-2(1,2) -benzenacyclononaphane-9-yl)pyridine 1-oxide]
Ki [1]: 0.33 nM | Ki [2]: 1.02 nM

COC(=O)Nc1ccc2c(c1)NC(=O)CCCCC(c1ccc(-c3c(F)cccc3OC(F)F)c[n+]1[O-])c1nc-2c[nH]1 (single isomer, unassigned) [Example 101-a, (Z)-5-(2-(Difluoromethoxy)-6-fluorophenyl)-2-(2^4-((methoxycarbonyl)amino)-4-oxo-1^1H-3-aza-1(4,2)-imidazola-2(1,2) -benzenacyclononaphane-9-yl)pyridine 1-oxide]
Ki [1]: 0.34 nM | Ki [2]: 3.9 nM
